Data reported in US20240024325A1, “Methods of Managing Cocaine or Other Drug Addictions” (Emory University, priority 2020, published 2024).
“Also recorded” adds a separate entry of the source.

How the values were obtained:
Drosophila melanogaster = assay: Cocaine-induced startle response and seizure activity in the Drosophila model; format: in vivo
Description: The percent time out of 45 seconds that each fly spent moving following a 42 cm drop was measured. Male flies exposed to cocaine spent less time moving than flies exposed to untreated food (p=2.13×10^−12). […] Error bars represent standard error.
Drosophila provides an advantageous model system for studies on cocaine consumption. […] In addition, flies develop sensitization to repeated intermittent exposure to cocaine. Startle behavior and the prevalence of seizure activity was measured in male and female flies. Measurements were taken following acute consumption of solid food, solid food supplemented with cocaine, or solid food supplemented with cocaine and ibrutinib. Male flies exposed to cocaine spent less time moving after being subjected to a mechanical startle (FIG. 3A). This is likely due to the occurrence of cocaine-induced seizures, which were scored as stationary periods.

mice = settings: cited from earlier work

| Compound | prevalence of cocaine-induced seizures during startle assay, female flies (Drosophila melanogaster; female flies, cocaine and ibrutinib vs cocaine only, did not reach statistical significance) | percent time spent moving after mechanical startle (startle response) (Drosophila melanogaster; male and female flies, food with cocaine and ibrutinib vs cocaine only, 45 seconds after 42 cm drop, FIG. 3A) | prevalence of cocaine-induced seizures during startle assay, male flies (Drosophila melanogaster; male flies, cocaine and ibrutinib vs cocaine only, FIG. 3B) | binge drinking (mice) |
| --- | --- | --- | --- | --- |
| C=CC(=O)N1CCC[C@@H](n2nc(-c3ccc(Oc4ccccc4)cc3)c3c(N)ncnc32)C1 [ibrutinib, (R)-1-(3-(4-amino-3-(4-phenoxyphenyl)-1H-pyrazolo[3,4-d]pyrimidin-1-yl)piperidin-1-yl)prop-2-en-1-one] | Fewer cocaine-induced seizures | increase in the percent of time spent moving; also recorded: spent more time moving than flies that only consumed cocaine | significant decrease in the prevalence of seizures | – |
| CC1=C(O)C(=O)[C@@H]2O[C@@H]2C1=O [terreic acid] | – | – | – | reduced binge drinking in mice |
